Measured values published in patent US10253081B2, “Glucagon analogues” (Zealand Pharma A/S, priority 2012, dated 2019).
Where two headings read alike, the source gives them in different places. *1 amine or outer side, *2 acyl side, *3 side chain or, on linkers, in order; H or OH if unused. Where a SMILES comes first, the peptide text is derived from it. Side-chain parts run from the residue outwards. [ ]: non-standard residue; d: D form. The star is where a group is joined. γGlu = O=C(O)[C@H](CCC(=O)[*:2])N[*:1]; Palmitoyl = CCCCCCCCCCCCCCCC(=O)*; Aib = CC(C)(N)C(=O)O

Assays:
[1] = Oral glucose tolerance test (OGTT); type: in vivo, C57BL/6J mice; settings: blood glucose AUC 0-120 min, 10 nmol/kg s.c. 4 h before oral glucose 2 g/kg
Description: Male C57BL/6J mice were fasted for 10 h before they received an oral glucose bolus of 2 g/kg body weight. Peptides were dissolved in saline buffered with 25 mM phosphate and administered at a dose of 10 nmol/kg body weight by subcutaneous injection 4 h before the glucose bolus. Control animals received a vehicle injection only. Group size was 7 animals per group. A pre-dose and a pre-glucose (0 min) blood sample were obtained by tail bleeding and blood glucose was measured with a glucometer. Additional samples of tail blood for measuring blood glucose were obtained 15 min, 30 min, 60 min, 90 min and 120 min after the glucose challenge. […] Calculation of AUC was done by the trapezoidal rule without baseline correction. The data are presented as mean±S.E.M. Statistical comparisons were conducted by one-way ANOVA followed by Tukey's post test. Vehicle alone was used as a control.

[2] = target: T1, human glucagon-like peptide 1 receptor (GLP-1R) (Homo sapiens, UniProt P43220); assay: GLP-1 receptor efficacy assay (cAMP AlphaScreen, CHO cells); type: cell-based; settings: Table 1A; for EC50: CHO cells expressing human GLP-1-R, cAMP, read-out: EC50 hGLP-1R CHO-K1; for Ratio GLP-1/Glucagon: EC50 [GLP-1R]/EC50 [Glucagon-R]
T1 construct: expressed in transfected cells
Outline: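 Stably transfected CHO clones expressing human GLP-1R or glucagon receptor were treated with increasing peptide concentrations for 15 min at room temperature in KRBH containing 0.1 mM IBMX. After lysis, cAMP was quantified by AlphaScreen; EC50 and efficacy relative to GLP-1 or glucagon reference came from curve fitting.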

[3] = Pharmacokinetic parameters after subcutaneous and intravenous administration to mice; type: in vivo; settings: male, mouse, plasma, 20 nmol/kg, C57Bl/6J mice; for half-life: read-out: Terminal half life (converted); for MRT: read-out: Mean Residence Time
Description: Pharmacokinetic parameters of the test compounds were determined after subcutaneous and intravenous administration to C57Bl/6J mice.
8 week old male C57Bl/6J mice were obtained from Taconic (Denmark) weighing approximately 20-25 g at time of arrival at the test facility. The mice were caged in European standard cages type III with light cycle of 12-hour dark and 12-hour light (lights on 06.00). Both diet, Altromin 1324 (Altromin, Germany), and water was administered ad libitum during the whole experimental period. The 8-11 week animals were imported to the laboratory at least 7 days before the start up of the experimental procedure in order to assure proper acclimatization. After sampling the mice were euthanized by cervical dislocation.
The compounds were first dissolved in 0.096% aqueous ammonia to a nominal concentration of 2 mg/ml, and then diluted to the desired dosing strength (4 μM) in sterile PBS containing 25 mM phosphate buffer, pH 7.4. Subcutaneous and intravenous injections corresponding to 20 nmol/kg were given. The GLP-1-glucagon dual agonists were administered for subcutaneous dosing in the neck region and via a lateral tail vein for intravenous dosing.
Blood samples (250 μl) were collected from the periorbital plexus at time points 0.5, 2, 4, 6, 12, 16, 20, 24 h for subcutaneous and 10, 30 min, 3, 6, 12, 18, 24 h for intravenous administration into ice-chilled K3EDTA tubes and centrifuged for 5 minutes at 4° C. within 20 minutes of sampling. Plasma (>100 μl) was separated to ice-chilled Micronic tubes, immediately frozen, and kept at −70° C. until analysed for plasma concentration for the respective GLP-1-glucagon compound using LC-MS/MS. Individual plasma concentration-time profiles were analysed by a non-compartmental approach in WinNonLin v6.3 (Pharsight inc, Mountain View, Calif., USA), and the resulting pharmacokinetic parameters determined.

T1 sequence (P43220 24-463): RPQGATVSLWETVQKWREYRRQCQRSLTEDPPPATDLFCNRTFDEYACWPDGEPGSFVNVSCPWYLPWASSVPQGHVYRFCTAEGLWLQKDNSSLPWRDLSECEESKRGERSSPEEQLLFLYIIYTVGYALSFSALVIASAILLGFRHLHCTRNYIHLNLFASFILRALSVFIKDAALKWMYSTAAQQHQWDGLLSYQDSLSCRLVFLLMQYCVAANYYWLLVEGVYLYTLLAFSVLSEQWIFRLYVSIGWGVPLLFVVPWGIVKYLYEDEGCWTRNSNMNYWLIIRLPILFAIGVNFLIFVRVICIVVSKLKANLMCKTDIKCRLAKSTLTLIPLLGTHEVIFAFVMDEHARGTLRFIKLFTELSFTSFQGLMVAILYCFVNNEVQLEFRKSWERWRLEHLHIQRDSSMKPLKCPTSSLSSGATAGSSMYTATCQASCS

SMILES | AUC (% Ctrl) [1] | EC50 [2] | Ratio GLP-1/Glucagon [2] | clearance ([3]; IV) | half-life ([3]; IV) | Tmax ([3]; SC) | bioavailability ([3]; SC) | MRT ([3]; SC) | half-life ([3]; SC)
CCCCCCCCCCCCCCCC(=O)N[C@@H](CCC(=O)NCCCC[C@H](NC(=O)[C@H](CCC(=O)O)NC(=O)[C@H](CC(=O)O)NC(=O)[C@H](CC(C)C)NC(=O)[C@H](Cc1ccc(O)cc1)NC(=O)[C@H](CCCCN)NC(=O)[C@H](CO)NC(=O)[C@H](Cc1ccc(O)cc1)NC(=O)[C@H](CC(=O)O)NC(=O)[C@H](CO)NC(=O)[C@@H](NC(=O)[C@H](Cc1ccccc1)NC(=O)[C@@H](NC(=O)CNC(=O)[C@H](CCC(N)=O)NC(=O)C(C)(C)NC(=O)[C@@H](N)Cc1c[nH]cn1)[C@@H](C)O)[C@@H](C)O)C(=O)N[C@@H](CCCNC(=N)N)C(=O)N[C@@H](C)C(=O)N[C@@H](CCCCN)C(=O)N[C@@H](CC(=O)O)C(=O)N[C@@H](Cc1ccccc1)C(=O)N[C@H](C(=O)N[C@@H](CCC(=O)O)C(=O)N[C@@H](Cc1c[nH]c2ccccc12)C(=O)N[C@@H](CC(C)C)C(=O)N[C@@H](CC(C)C)C(=O)N[C@@H](CO)C(=O)N[C@@H](C)C(=O)O)[C@@H](C)CC)C(=O)O [Compound 14, H-H-Aib-QGTFTSDYSKYLDE-K(Hexadecanoyl-isoGlu)-RAKDFIEWLLSA-OH] (H-H[Aib]QGTFTSDYSKYLDEK([γGlu-Palmitoyl])RAKDFIEWLLSA-OH) | 59 % Ctrl | 0.53 nM | 0.98 | 0.225 mL/min/kg | 6.2 h | 4 h | 64% | 12.2 h | 6.1 h
CCCCCCCCCCCCCCCC(=O)N[C@@H](CCC(=O)NCCCC[C@H](NC(=O)[C@H](CO)NC(=O)[C@H](CC(=O)O)NC(=O)[C@H](CC(C)C)NC(=O)[C@H](Cc1ccc(O)cc1)NC(=O)[C@H](CCCCN)NC(=O)[C@H](CO)NC(=O)[C@H](Cc1ccc(O)cc1)NC(=O)[C@H](CC(=O)O)NC(=O)[C@H](CO)NC(=O)[C@@H](NC(=O)[C@H](Cc1ccccc1)NC(=O)[C@@H](NC(=O)CNC(=O)[C@H](CCC(N)=O)NC(=O)C(C)(C)NC(=O)[C@@H](N)Cc1c[nH]cn1)[C@@H](C)O)[C@@H](C)O)C(=O)N[C@@H](C)C(=O)N[C@@H](C)C(=O)N[C@@H](Cc1c[nH]cn1)C(=O)N[C@@H](CC(=O)O)C(=O)N[C@@H](Cc1ccccc1)C(=O)N[C@H](C(=O)N[C@@H](CCC(=O)O)C(=O)N[C@@H](Cc1c[nH]c2ccccc12)C(=O)N[C@@H](CC(C)C)C(=O)N[C@@H](CC(C)C)C(=O)N[C@@H](CO)C(=O)N[C@@H](C)C(=O)O)C(C)C)C(=O)O [Compound 13, H-H-Aib-QGTFTSDYSKYLDS-K(Hexadecanoyl-isoGlu)-AAHDFVEWLLSA-OH] | 55 % Ctrl | 0.51 nM | 0.52 | 0.148 mL/min/kg | 6.3 h | 4 h | 76% | 14.7 h | 8.6 h
CCCCCCCCCCCCCCCC(=O)N[C@@H](CCC(=O)NCCCC[C@H](NC(=O)[C@H](CCC(=O)O)NC(=O)[C@H](CC(=O)O)NC(=O)[C@H](CC(C)C)NC(=O)[C@H](Cc1ccc(O)cc1)NC(=O)[C@H](CCCCN)NC(=O)[C@H](CO)NC(=O)[C@H](Cc1ccc(O)cc1)NC(=O)[C@H](CC(=O)O)NC(=O)[C@H](CO)NC(=O)[C@@H](NC(=O)[C@H](Cc1ccccc1)NC(=O)[C@@H](NC(=O)CNC(=O)[C@H](CCC(N)=O)NC(=O)C(C)(C)NC(=O)[C@@H](N)Cc1c[nH]cn1)[C@@H](C)O)[C@@H](C)O)C(=O)N[C@@H](C)C(=O)N[C@@H](C)C(=O)N[C@@H](CCCCN)C(=O)N[C@@H](CC(=O)O)C(=O)N[C@@H](Cc1ccccc1)C(=O)N[C@H](C(=O)N[C@@H](CCC(=O)O)C(=O)N[C@@H](Cc1c[nH]c2ccccc12)C(=O)N[C@@H](CC(C)C)C(=O)N[C@@H](CC(C)C)C(=O)N[C@@H](CO)C(=O)N[C@@H](C)C(N)=O)[C@@H](C)CC)C(=O)O [Compound 4, H-H-Aib-QGTFTSDYSKYLDE-K(Hexadecanoyl-isoGlu)-AAKDFIEWLLSA-NH2] (H-H[Aib]QGTFTSDYSKYLDEK([γGlu-Palmitoyl])AAKDFIEWLLSA-NH2) | 65 % Ctrl | 0.38 nM | 0.24 | 0.185 mL/min/kg | 7.4 h | 4 h | 53% | 12.5 h | 6.4 h
CCCCCCCCCCCCCCCC(=O)N[C@@H](CCC(=O)NCCCC[C@H](NC(=O)[C@H](CCC(=O)O)NC(=O)[C@H](CC(=O)O)NC(=O)[C@H](CC(C)C)NC(=O)[C@H](Cc1ccc(O)cc1)NC(=O)[C@H](CCCCN)NC(=O)[C@H](CO)NC(=O)[C@H](Cc1ccc(O)cc1)NC(=O)[C@H](CC(=O)O)NC(=O)[C@H](CO)NC(=O)[C@@H](NC(=O)[C@H](Cc1ccccc1)NC(=O)[C@@H](NC(=O)CNC(=O)[C@H](CCC(N)=O)NC(=O)[C@H](CO)NC(=O)[C@@H](N)Cc1c[nH]cn1)[C@@H](C)O)[C@@H](C)O)C(=O)N[C@@H](C)C(=O)N[C@@H](C)C(=O)N[C@@H](Cc1c[nH]cn1)C(=O)N[C@@H](CCC(=O)O)C(=O)N[C@@H](Cc1ccccc1)C(=O)N[C@H](C(=O)N[C@@H](CCC(=O)O)C(=O)N[C@@H](Cc1c[nH]c2ccccc12)C(=O)N[C@@H](CC(C)C)C(=O)N[C@@H](CCC(=O)O)C(=O)N[C@@H](CO)C(=O)N[C@@H](C)C(N)=O)C(C)C)C(=O)O [Compound 10, H-HSQGTFTSDYSKYLDE-K(Hexadecanoyl-isoGlu)-AAHEFVEWLESA-NH2] (H-HSQGTFTSDYSKYLDEK([γGlu-Palmitoyl])AAHEFVEWLESA-NH2) | 46 % Ctrl | 0.23 nM | 1.00 | 0.355 mL/min/kg | 3 h | 2 h | 80% | 6.5 h | 3.7 h
CCCCCCCCCCCCCCCC(=O)N[C@@H](CCC(=O)NCCCC[C@H](NC(=O)[C@H](CO)NC(=O)[C@H](CC(=O)O)NC(=O)[C@H](CC(C)C)NC(=O)[C@H](Cc1ccc(O)cc1)NC(=O)[C@H](CCCCN)NC(=O)[C@H](CO)NC(=O)[C@H](Cc1ccc(O)cc1)NC(=O)[C@H](CC(=O)O)NC(=O)[C@H](CO)NC(=O)[C@@H](NC(=O)[C@H](Cc1ccccc1)NC(=O)[C@@H](NC(=O)CNC(=O)[C@H](CCC(N)=O)NC(=O)[C@H](CO)NC(=O)[C@@H](N)Cc1c[nH]cn1)[C@@H](C)O)[C@@H](C)O)C(=O)N[C@@H](C)C(=O)N[C@@H](C)C(=O)N[C@@H](Cc1c[nH]cn1)C(=O)N[C@@H](CC(=O)O)C(=O)N[C@@H](Cc1ccccc1)C(=O)N[C@H](C(=O)N[C@@H](CCC(=O)O)C(=O)N[C@@H](Cc1c[nH]c2ccccc12)C(=O)N[C@@H](CC(C)C)C(=O)N[C@@H](CC(C)C)C(=O)N[C@@H](CO)C(N)=O)C(C)C)C(=O)O [Compound 8, H-HSQGTFTSDYSKYLDS-K(Hexadecanoyl-isoGlu)-AAHDFVEWLLS-NH2] (H-HSQGTFTSDYSKYLDSK([γGlu-Palmitoyl])AAHDFVEWLLS-NH2) | 50 % Ctrl | 0.41 nM | 1.41 | 0.128 mL/min/kg | 3.9 h | 4 h | 42% | 8.1 h | 4.1 h
